Here are results for one molecule from patent publication US11807625B2, “Capsid inhibitors for the prevention of HIV” (Gilead Sciences, Inc., priority 2019, dated 2023).

This series deals with rhesus plasma protein. Kind of series: Competitive equilibrium dialysis (EQDS) assay, rhesus plasma protein binding. Type of series: in vitro ADME. Particulars: EC95 adjusted for rhesus plasma protein binding (competitive equilibrium dialysis). Here is the method:
The mean 95% effective concentration (EC95) of 1.91±0.16 nM for a compound of Formula (Ib) (“Compound Ib”) was determined using a 7-day antiviral assay (p24 ELISA endpoint) in rhesus peripheral blood mononuclear cells (PBMCs) infected with SHIV-162P3. A competitive equilibrium dialysis assay was used to quantify rhesus plasma protein binding to Compound Ib, resulting in an inhibitory quotient (IQ) equal to Compound Ib plasma concentrations divided by a mean rhesus plasma protein-binding-adjusted EC95 (paEC95) value of 30.2±2.5 nM.
Equilibrium dialysis shift (EQDS) assay details: Rhesus plasma protein binding to a compound of Formula (Ib) (“Compound Ib”) was determined by competitive equilibrium dialysis. Rhesus plasma (10%) was spiked with Compound Ib (2 μM) and blank RPMI cell culture medium containing 2% fetal bovine serum (CCM) were placed into opposite sides of assembled dialysis cells, and incubations were performed in triplicate. After a 24-h equilibration period at 37° C., samples were corrected for the matrix effect, quenched, and quantified by liquid chromatography tandem mass spectrometry (LC-MS/MS) with electrospray ionization in positive mode and multiple-reaction monitoring (MRM). The fold change value in 100% rhesus plasma was then calculated using the plasma/CCM ratio after correcting for the sample dilution factor and the percent free fraction in the matrix.
For orientation: Equilibrium dialysis compares concentrations on both sides of a semipermeable membrane.

As for `CC(C)(C#Cc1ccc(-c2ccc(Cl)c3c(NS(=O)(=O)C4CC4)nn(CC(F)F)c23)c([C@H](Cc2cc(F)cc(F)c2)NC(=O)Cn2nc(C(F)F)c3c2C(F)(F)[C@@H]2C[C@H]32)n1)S(C)(=O)=O` [Compound Ib, N—((S)-1-(3-(4-chloro-3-(cyclopropanesulfonamido)-1-(2,2-difluoroethyl)-1H-indazol-7-yl)-6-(3-methyl-3-(methylsulfonyl)but-1-yn-1-yl)pyridin-2-yl)-2-(3,5-difluorophenyl)ethyl)-2-((3b S,4aR)-3-(difluoromethyl)-5,5-difluoro-3b,4,4a,5-tetrahydro-1H-cyclopropa[3,4]cyclopenta[1,2-c]pyrazol-1-yl)acetamide], the “mean rhesus plasma protein-binding-adjusted EC95 (paEC95)” value was determined as 30.2 ± 2.5 nM.
